Experimental findings from BindingDB's records for patent WO2025064535 (Deep Apple Therapeutics, 2025) are described below.

Assay [1] deals with T1, Mas-related G-protein coupled receptor member X2 (Homo sapiens, UniProt Q96LB1).
T1 sequence (Q96LB1 whole entry): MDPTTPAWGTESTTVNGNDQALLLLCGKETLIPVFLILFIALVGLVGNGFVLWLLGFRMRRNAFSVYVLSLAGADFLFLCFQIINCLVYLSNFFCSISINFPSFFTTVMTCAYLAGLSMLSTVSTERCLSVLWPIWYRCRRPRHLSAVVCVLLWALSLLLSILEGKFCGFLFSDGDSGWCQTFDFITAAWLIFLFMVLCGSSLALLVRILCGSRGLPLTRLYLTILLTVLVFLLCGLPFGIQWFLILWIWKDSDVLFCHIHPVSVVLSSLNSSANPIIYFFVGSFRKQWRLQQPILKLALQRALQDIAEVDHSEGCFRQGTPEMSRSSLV
Nature of the assay: MRGPRX2 Activity Assay. On the procedure: FlpIn TRex-MRGPRX2-HEK293 cells (herein TRex-MRPGRX2-HEK) stably transfected to express human MRGPRX2 were maintained at 37 °C with 5% CO2 and grown in DMEM supplemented with 10% FBS, 1% L-Glutamate, 1% penicillin/streptomycin, 100ug/mL Hygromycin B, and 15 µg/mL Blasticidin. GOI (MRGPRX2) expression was induced with 100ng/mL of Doxycycline 18-24 hours prior to experiment, in flask. On the day of experiment, cells were lifted with TripLE Express and seeded in 384-well white walled opaque bottomed, assay plates, at 8,000 cells per well in 5 µL freshly made assay buffer (HBSS, 20 mM HEPES, 0.1% BSA and 10 mM LiCl). Compounds solubilized in 100% DMSO at 30 mM were serially diluted (1:4) first in 100% DMSO, and an intermediate plate of assay buffer was used to establish a final top concentration of 30 µM (in assay plate). Final DMSO concentration was kept constant at 1% across assay plates. Cortistatin-14, at 30 mM stock concentration was solubilized in HBSS + 0.1% BSA, stored at -20°C in 5 µL aliquots and discarded after one freeze-thaw cycle. […] Antagonist equilibrium was established with 30 minutes preincubation, followed by no wash, direct addition, and stimulation of agonist for 1 hour at 37 °C / 5% CO2. IP-1 standards and HTRF detection reagents were added according to the IP-one Gq kit protocol purchased from CisBio (part number 62IPAPEJ). The plate was read on an EnVision XCite plate reader. The HTRF ratio was then calculated from raw data (channel1/channel2 ×10,000) and analyzed using either GraphPad Prism or a custom Python script to calculate IC50 using Log[Antagonist] vs. response (4 parameter) nonlinear regression.

In assay [2] the target is T1, Mas-related G-protein coupled receptor member X2. Description: LAD2 Degranulation Assay (Protocol 2). As for the experimental part:
LAD-2 cells were maintained at 37 °C with 5% CO2 and grown in complete StemPro-34 media supplemented with 1% L-Glutamate, 1% penicillin/streptomycin, and 250 ng/mL human SCF. 18-24 hours prior to experiment, LAD-2 cells were collected and transferred to growth media without SCF. […] For dose-response assays, compounds solubilized in 100% DMSO at 30 mM were serially diluted (1:3) first in 100% DMSO, and 2 intermediate dilutions with assay buffer were used to establish a final top concentration of 3 ^M (in assay plate). […] Final DMSO concentration was kept constant at 0.1% across plates for all assays. Cortistatin-14 at 30 mM stock concentration was solubilized in HBSS + 0.1% BSA, stored at -20°C in 5 ^L aliquots and discarded after one freeze-thaw cycle. Final concentration of agonist used in both dose-response and single point assays was 0.5 ^M, prepared in assay buffer. Antagonist equilibrium was established with 2 h preincubation, followed by no wash, direct addition, and stimulation of agonist for 30 minutes at 37 °C. For detection of ^-hexosaminidase activity, assay plates were centrifuged and 5 ^L of cell-free supernatant from each assay well was transferred to a black-walled black-bottomed 384-well plate. Substrate solution (1 mM 4-Methylumbelliferyl N-acetyl-β-D-glucosaminide in citrate buffer, pH=4.5, 15 ^l) was added to each well and plates were incubated for 1 hour at 37 °C. […] Background-subtracted data was analyzed using either GraphPad Prism or a custom Python script to calculate IC50 using either Log[Antagonist] vs. response (4 parameter) nonlinear regression (dose-response assays).

Assay [3] shares this target. Description: LAD2 Degranulation Assay (Protocol 1). As for the experimental part: LAD-2 cells were maintained at 37 °C with 5% CO2 and grown in complete StemPro-34 media supplemented with 1% L-Glutamate, 1% penicillin/streptomycin, and 250 ng/mL human SCF. On the day of experiment, cells were collected by centrifugation and seeded in 384-well assay plates, at 4,000 cells per well in 10 ^l freshly made assay buffer (10 mM HEPES, 130 mM NaCl, 5 mM KCl, 1.8 mM CaCl2, 1.0 mM MgCl2, 5.6 mM glucose, 0.1% BSA, pH = 7.40). For dose-response assays, compounds solubilized in 100% DMSO at 30 mM were serially diluted (1:3) first in 100% DMSO, and 2 intermediate dilutions with assay buffer were used to establish a final top concentration of 3 ^M (in assay plate). Final DMSO concentration was kept constant at 0.1% across plates for all assays. Cortistatin-14 at 30 mM stock concentration was solubilized in HBSS + 0.1% BSA, stored at -20°C in 5 ^L aliquots and discarded after one freeze-thaw cycle. Final concentration of agonist used in both dose-response and single point assays was 1 ^M, prepared in assay buffer. Antagonist equilibrium was established with 30 minute preincubation, followed by no wash, direct addition, and stimulation of agonist for 30 minutes at 37 °C. For detection of ^-hexosaminidase activity, assay plates were centrifuged and 5 ^l of cell-free supernatant from each assay well was transferred to a black-walled black-bottomed 384-well plate. Substrate solution (1 mM 4-Methylumbelliferyl N-acetyl-β-D-glucosaminide in citrate buffer, pH=4.5, 15 ^l) was added to each well and plates were incubated for 1 hour at 37 °C. […] Background-subtracted data was analyzed using either GraphPad Prism or a custom Python script to calculate IC50 using either Log[Antagonist] vs. response (4 parameter) nonlinear regression (dose-response assays).

SMILES strings stand for the structures.

For the compound `C[C@@H](C(=O)Nc1nc2cc3c(cc2s1)CCC3)N1CCC(F)(F)[C@H](c2ccc(=O)[nH]c2)C1` [WO2025064535, Compound 28], the IC50 was 18 nM in assay [1] and 144 nM in assay [2].

On to `C[C@@H](C(=O)Nc1nc2cc3c(cc2s1)OCCO3)N1CCC(F)(F)[C@@H](c2ccc(=O)[nH]c2)C1` [WO2025064535, Compound 29], for which the half-inhibitory concentration (IC50) in assay [1] came to 8.6 nM; in assay [2], 20 nM.

`C[C@@H](C(=O)Nc1nc2cc3c(cc2s1)OC(F)(F)O3)N1CCC(F)(F)[C@H](c2ccc(=O)[nH]c2)C1` [WO2025064535, Compound 32]: the values for the IC50 in assay [1] and in assay [2] were 15 nM and 27 nM, respectively.

For the compound `C[C@@H](C(=O)Nc1nc2cc3c(cc2s1)OC(F)(F)O3)N1CCC(F)(F)[C@@H](c2c[nH]c(=O)cn2)C1` [WO2025064535, Compound 34], the half-inhibitory concentration (IC50) in assay [1] was found to be 14 nM; in assay [2] it was 52 nM.

Consider `C[C@@H](C(=O)Nc1nc2cc3c(cc2s1)OC(F)(F)O3)N1CC[C@H](F)[C@@H](c2cc[n+]([O-])cc2)C1` [WO2025064535, Compound 38], for which the results for the concentration for half-maximal inhibition (IC50) in assay [1] and in assay [2] were 32 nM and 72 nM, respectively.

Turning to `C[C@@H](C(=O)Nc1nc2cc3c(cc2s1)OCCO3)N1CCC(F)(F)[C@H](c2c[nH]c(=O)cn2)C1` [WO2025064535, Compound 41], the IC50 worked out at 5.9 nM in assay [1] and 23 nM in assay [2].

Regarding `C[C@@H](C(=O)Nc1nc2cc3c(cc2s1)OC(F)(F)O3)N1CCC(F)(F)[C@H](c2c[nH]c(=O)c([C@@H](O)CO)c2)C1` [WO2025064535, Compound 43], the half-inhibitory concentration (IC50) amounted to 11 nM in assay [1] and 7.4 nM in assay [2].

Regarding `C[C@@H](C(=O)Nc1nc2cc3c(cc2s1)OC(F)(F)O3)N1CCC[C@@H](c2cc[n+]([O-])cc2)C1` [WO2025064535, Compound 49], the half-inhibitory concentration (IC50) is above 30000 nM in assay [1] and above 3000 nM in assay [2].

As for `C[C@@H](C(=O)Nc1nc2cc3c(cc2s1)OC(F)(F)O3)N1CCC(F)(F)[C@H](c2cc[n+]([O-])c([C@H](O)CO)c2)C1` [WO2025064535, Compound 54], the IC50 in assay [1] turned out to be 7.8 nM; in assay [2], 6.6 nM.

For `C[C@H](C(=O)Nc1nc2cc3c(cc2s1)OCO3)N1CCC(F)(F)[C@@H](c2cc[n+]([O-])cc2)C1` [WO2025064535, Compound 81], the figures for the IC50 in assay [1] and in assay [3] were 3.7 nM and 12 nM, respectively.

Turning to `C[C@@H](C(=O)Nc1nc2cc3c(cc2s1)OC(F)(F)O3)N1CCC(F)(F)[C@H](c2c[nH]c(=O)c(CN)c2)C1` [WO2025064535, Compound 85], the IC50 stood at 36 nM in assay [1], 130 nM in assay [3] and 82 nM in assay [2].

For the compound `CNCc1cc([C@H]2CN([C@@H](C)C(=O)Nc3nc4cc5c(cc4s3)OC(F)(F)O5)CCC2(F)F)c[nH]c1=O` [WO2025064535, Compound 86], the half-maximal inhibitory concentration (IC50) is above 30000 nM in assay [1] and above 3000 nM in assay [3].

`CNCc1cc([C@@H]2CN([C@@H](C)C(=O)Nc3nc4cc5c(cc4s3)OC(F)(F)O5)CCC2(F)F)c[nH]c1=O` [WO2025064535, Compound 87]: the figures for the IC50 in assay [1] and in assay [3] were 41 nM and 223 nM, respectively.

Turning to `C[C@@H](C(=O)Nc1nc2cc3c(cc2s1)OC(F)(F)O3)N1CCC(F)(F)[C@@H](c2c[nH]c(=O)c(CO)c2)C1` [WO2025064535, Compound 88], the concentration for half-maximal inhibition (IC50) is 1940 nM in assay [1] and above 3000 nM in assay [3].

As to `C[C@@H](C(=O)Nc1nc2cc3c(cc2s1)OC(F)(F)O3)N1CCC(F)(F)[C@H](c2c[nH]c(=O)c(CO)c2)C1` [WO2025064535, Compound 89], the IC50 in assay [1] amounted to 30 nM; in assay [3], 215 nM; in assay [2], 66 nM.

`C[C@@H](C(=O)Nc1nc2cc3c(cc2s1)OC(F)(F)O3)N1CCC(F)(F)[C@@H](c2c[nH]c(=O)c(CO)n2)C1` [WO2025064535, Compound 90]: the IC50 in assay [1] is above 17300 nM; in assay [3], above 3000 nM.

Regarding `C[C@@H](C(=O)Nc1nc2cc3c(cc2s1)OC(F)(F)O3)N1CCC(F)(F)[C@H](c2c[nH]c(=O)c(CO)n2)C1` [WO2025064535, Compound 91], the values for the IC50 in assay [1], in assay [3] and in assay [2] were 36 nM, 233 nM and 68 nM, respectively.

For the compound `CNCc1cc([C@@H]2CN([C@@H](C)C(=O)Nc3nc4cc5c(cc4s3)OC(F)(F)O5)CCC2(F)F)cc[n+]1[O-]` [WO2025064535, Compound 102], the IC50 in assay [1] was determined as 87 nM; in assay [3] it was 346 nM.

Turning to `C[C@@H](C(=O)Nc1nc2cc3c(cc2s1)CCC3)N1CCC(F)(F)[C@H](c2c[nH]c(=O)c(CO)c2)C1` [WO2025064535, Compound 107], the figures for the IC50 in assay [1], in assay [3] and in assay [2] were 49 nM, 586 nM and 101 nM, respectively.

By IC50 is commonly meant the concentration needed to halve the response being measured. Low readings indicate higher potency, high ones lower potency.
